Assay results: US12071425B2 (Genentech, Inc., priority 2018, dated 2024)
Structures can show the parent of a compound that is named as a salt.

Molecular target: kinase domain of IRE1 alpha (His-tagged kinase dead construct KR, AA G547-L977, D688N) (Homo sapiens (Human), UniProt O75460, D688N)
Test: IRE1α TR-FRET competition binding assay
Conditions: competition with Kinase Tracer 236, 0.1 μM; one hour at room temperature
Procedure: To determine the affinity of compound binding to the kinase domain of IRE1 alpha, a Time Resolved Fluorescence Resonance Energy Transfer (TR-FRET) competition assay was used. A His-tagged IRE1 alpha kinase dead construct containing the kinase and RNase domains (KR, AA G547-L977, D688N) was expressed in Sf9 insect cells. The purified protein (final concentration 0.006 μM micromolar) was pre-incubated with anti-His Europium labeled antibody (Life Technologies PV5596, final concentration 0.002 μM micromolar) for one hour at 4° C. in 1X TR-FRET Assay Buffer (50 mM HEPES, pH 7.5.10 mM MgCl2, 0.083 mM Brij 35, 1 mM DTT, and 0.1% bovine gamma globulin) prior to addition to test compounds. A fluorescent labeled probe based on an ATP competitive inhibitor (Kinase Tracer 236, Life Technologies PV5592) is added to a final concentration of 0.1 μM (micromolar). Reactions were carried out for one hour at room temperature in a final volume of 20 μL (microliter) in 384 well white ProxiPlates (Perkin Elmer 6008289). Binding of the tracer to the IRE1 protein alpha was detected in an Envision instrument (PerkinElmer) equipped with a TRF laser option and a LANCE/Delfia Dual/Bias D400/D630 mirror (Ex 347 nm, 1st Em 665 nm, 2nd Em 615 nm).
Exemplary compounds in Table A1 were tested in the IRE1α binding assays.

Chain of kinase domain of IRE1 alpha (His-tagged kinase dead construct KR, AA G547-L977, D688N) (O75460 547-977 D688N): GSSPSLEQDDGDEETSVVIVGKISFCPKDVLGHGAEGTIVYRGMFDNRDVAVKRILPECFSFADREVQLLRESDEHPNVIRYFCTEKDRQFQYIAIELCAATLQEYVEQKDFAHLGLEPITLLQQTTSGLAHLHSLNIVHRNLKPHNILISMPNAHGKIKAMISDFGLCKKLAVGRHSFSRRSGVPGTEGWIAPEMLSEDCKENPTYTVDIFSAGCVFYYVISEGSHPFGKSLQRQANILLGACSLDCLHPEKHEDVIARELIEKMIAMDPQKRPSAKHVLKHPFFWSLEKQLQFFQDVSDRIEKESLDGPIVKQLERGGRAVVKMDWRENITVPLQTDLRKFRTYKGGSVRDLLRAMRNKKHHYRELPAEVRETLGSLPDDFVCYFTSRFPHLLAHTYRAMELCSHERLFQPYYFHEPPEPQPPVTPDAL

O=S(=O)(Cc1ccccc1)Nc1c(F)cc(Oc2ncccc2-c2ccnc(NC3CNCC(C(F)F)C3)n2)c(F)c1F (single isomer, unassigned) [Compound 302, N-(4-((3-(2-((5-(Difluoromethyl)piperidin-3-yl)amino)pyrimidin-4-yl)pyridin-2-yl)oxy)-2,3,6-trifluorophenyl)-1-phenylmethanesulfonamide]
IC50: 0.44 nM

O=S(=O)(Cc1ccccc1)Nc1c(F)cc(Oc2ncccc2-c2ccnc(NC3CNCC(C(F)F)C3)n2)c(F)c1F (single isomer, unassigned) [Compound 303, N-(4-((3-(2-((5-(Difluoromethyl)piperidin-3-yl)amino)pyrimidin-4-yl)pyridin-2-yl)oxy)-2,3,6-trifluorophenyl)-1-phenylmethanesulfonamide]
IC50: 35 nM

CN(C)C1CCC(Nc2nccc(-c3cccnc3Oc3cc(F)c(NS(=O)(=O)Cc4ccccc4)c(F)c3F)n2)CC1F (single isomer, unassigned) [Compound 306, N-(4-((3-(2-((4-(Dimethylamino)-3-fluorocyclohexyl)amino)pyrimidin-4-yl)pyridin-2-yl)oxy)-2,3,6-trifluorophenyl)-1-phenylmethanesulfonamide]
IC50: 43 nM

CN(C)C1CCC(Nc2nccc(-c3cccnc3Oc3cc(F)c(NS(=O)(=O)Cc4ccccc4)c(F)c3F)n2)CC1F (single isomer, unassigned) [Compound 307, N-(4-((3-(2-((4-(Dimethylamino)-3-fluorocyclohexyl)amino)pyrimidin-4-yl)pyridin-2-yl)oxy)-2,3,6-trifluorophenyl)-1-phenylmethanesulfonamide hydrochloride]
IC50: 0.31 nM

CN(C)C1CCC(Nc2nccc(-c3cccnc3Oc3cc(F)c(NS(=O)(=O)Cc4ccccc4)c(F)c3F)n2)CC1F (single isomer, unassigned) [Compound 308, N-(4-((3-(2-((4-(Dimethylamino)-3-fluorocyclohexyl)amino)pyrimidin-4-yl)pyridin-2-yl)oxy)-2,3,6-trifluorophenyl)-1-phenylmethanesulfonamide]
IC50: 83 nM

Cc1cc(NS(=O)(=O)C(C)c2ccccc2)c(F)c(F)c1Oc1ncccc1-c1ccnc(N[C@@H]2CNC[C@@H](F)C2)n1 (single isomer, unassigned) [Compound 313, hydrochloride]
IC50: 1.2 nM

Cc1cc(NS(=O)(=O)C(C)c2ccccc2)c(F)c(F)c1Oc1ncccc1-c1ccnc(N[C@@H]2CNC[C@@H](F)C2)n1 (single isomer, unassigned) [Compound 314]
IC50: 0.24 nM

COC1CNCC(Nc2nccc(-c3cccnc3Oc3cc(F)c(NS(=O)(=O)Cc4ccccc4)c(F)c3F)n2)C1 (single isomer, unassigned) [Compound 317, 1-Phenyl-N-(2,3,6-trifluoro-4-((3-(2-((5-methoxypiperidin-3-yl)amino)pyrimidin-4-yl)pyridin-2-yl)oxy)phenyl)methanesulfonamide]
IC50: 140 nM

COC1CNCC(Nc2nccc(-c3cccnc3Oc3cc(F)c(NS(=O)(=O)Cc4ccccc4)c(F)c3F)n2)C1 (single isomer, unassigned) [Compound 318, 1-Phenyl-N-(2,3,6-trifluoro-4-((3-(2-((5-methoxypiperidin-3-yl)amino)pyrimidin-4-yl)pyridin-2-yl)oxy)phenyl)methanesulfonamide]
IC50: 0.3 nM

COC1CNCC(Nc2nccc(-c3cccnc3Oc3cc(F)c(NS(=O)(=O)Cc4ccccc4)c(F)c3F)n2)C1 (single isomer, unassigned) [Compound 319, 1-Phenyl-N-(2,3,6-trifluoro-4-((3-(2-((5-methoxypiperidin-3-yl)amino)pyrimidin-4-yl)pyridin-2-yl)oxy)phenyl)methanesulfonamide]
IC50: 0.48 nM

O=S(=O)(Cc1ccccc1F)Nc1c(F)cc(Oc2ncccc2-c2ccnc(NC3CNCC(C4CC4)C3)n2)c(F)c1F (single isomer, unassigned) [Compound 324, N-(4-((3-(2-((5-Cyclopropylpiperidin-3-yl)amino)pyrimidin-4-yl)pyridin-2-yl)oxy)-2,3,6-trifluorophenyl)-1-(2-fluorophenyl)methanesulfonamide]
IC50: 0.4 nM

O=S(=O)(Cc1ccccc1F)Nc1c(F)cc(Oc2ncccc2-c2ccnc(NC3CNCC(C4CC4)C3)n2)c(F)c1F (single isomer, unassigned) [Compound 325, N-(4-((3-(2-((5-Cyclopropylpiperidin-3-yl)amino)pyrimidin-4-yl)pyridin-2-yl)oxy)-2,3,6-trifluorophenyl)-1-(2-fluorophenyl)methanesulfonamide]
IC50: 22 nM

O=S(=O)(Cc1ccccc1F)Nc1c(F)cc(Oc2ncccc2-c2ccnc(NC3CNCC(C4CC4)C3)n2)c(F)c1F (single isomer, unassigned) [Compound 326, N-(4-((3-(2-((5-Cyclopropylpiperidin-3-yl)amino)pyrimidin-4-yl)pyridin-2-yl)oxy)-2,3,6-trifluorophenyl)-1-(2-fluorophenyl)methanesulfonamide]
IC50: 0.61 nM

O=S(=O)(Cc1ccccc1F)Nc1c(F)cc(Oc2ncccc2-c2ccnc(NC3CNCC(C4CC4)C3)n2)c(F)c1F (single isomer, unassigned) [Compound 327, N-(4-((3-(2-((5-Cyclopropylpiperidin-3-yl)amino)pyrimidin-4-yl)pyridin-2-yl)oxy)-2,3,6-trifluorophenyl)-1-(2-fluorophenyl)methanesulfonamide]
IC50: 0.26 nM

COCC1CNCC(Nc2nccc(-c3cccnc3Oc3cc(F)c(NS(=O)(=O)Cc4ccccc4)c(F)c3F)n2)C1 (single isomer, unassigned) [Compound 328, 1-Phenyl-N-(2,3,6-trifluoro-4-((3-(2-((5-(methoxymethyl)piperidin-3-yl)amino)pyrimidin-4-yl)pyridin-2-yl)oxy)phenyl)methanesulfonamide]
IC50: 11 nM

COCC1CNCC(Nc2nccc(-c3cccnc3Oc3cc(F)c(NS(=O)(=O)Cc4ccccc4)c(F)c3F)n2)C1 (single isomer, unassigned) [Compound 329, 1-Phenyl-N-(2,3,6-trifluoro-4-((3-(2-((5-(methoxymethyl)piperidin-3-yl)amino)pyrimidin-4-yl)pyridin-2-yl)oxy)phenyl)methanesulfonamide]
IC50: 12 nM

COCC1CNCC(Nc2nccc(-c3cccnc3Oc3cc(F)c(NS(=O)(=O)Cc4ccccc4)c(F)c3F)n2)C1 (single isomer, unassigned) [Compound 330, 1-Phenyl-N-(2,3,6-trifluoro-4-((3-(2-((5-(methoxymethyl)piperidin-3-yl)amino)pyrimidin-4-yl)pyridin-2-yl)oxy)phenyl)methanesulfonamide]
IC50: 87 nM

COCC1CNCC(Nc2nccc(-c3cccnc3Oc3cc(F)c(NS(=O)(=O)Cc4ccccc4)c(F)c3F)n2)C1 (single isomer, unassigned) [Compound 331, 1-Phenyl-N-(2,3,6-trifluoro-4-((3-(2-((5-(methoxymethyl)piperidin-3-yl)amino)pyrimidin-4-yl)pyridin-2-yl)oxy)phenyl)methanesulfonamide]
IC50: 0.82 nM

CC(C)(F)C1CNCC(Nc2nccc(-c3cccnc3Oc3cc(F)c(NS(=O)(=O)Cc4ccccc4)c(F)c3F)n2)C1 (single isomer, unassigned) [Compound 334, 1-Phenyl-N-(2,3,6-trifluoro-4-((3-(2-((5-(2-fluoropropan-2-yl)piperidin-3-yl)amino)pyrimidin-4-yl)pyridin-2-yl)oxy)phenyl)methanesulfonamide hydrochloride]
IC50: 9.8 nM

CC(C)(F)C1CNCC(Nc2nccc(-c3cccnc3Oc3cc(F)c(NS(=O)(=O)Cc4ccccc4)c(F)c3F)n2)C1 (single isomer, unassigned) [Compound 335, 1-Phenyl-N-(2,3,6-trifluoro-4-((3-(2-((5-(2-fluoropropan-2-yl)piperidin-3-yl)amino)pyrimidin-4-yl)pyridin-2-yl)oxy)phenyl)methanesulfonamide hydrochloride]
IC50: 330 nM

CC(C)(F)C1CNCC(Nc2nccc(-c3cccnc3Oc3cc(F)c(NS(=O)(=O)Cc4ccccc4)c(F)c3F)n2)C1 (single isomer, unassigned) [Compound 336, 1-Phenyl-N-(2,3,6-trifluoro-4-((3-(2-((5-(2-fluoropropan-2-yl)piperidin-3-yl)amino)pyrimidin-4-yl)pyridin-2-yl)oxy)phenyl)methanesulfonamide hydrochloride]
IC50: 0.42 nM

CC(F)(F)C1CNCC(Nc2nccc(-c3cccnc3Oc3cc(F)c(NS(=O)(=O)Cc4ccccc4)c(F)c3F)n2)C1 (single isomer, unassigned) [Compound 338, N-(4-((3-(2-((5-(1, l-Difluoroethyl)piperidin-3-yl)amino)pyrimidin-4-yl)pyridin-2-yl)oxy)-2,3,6-trifluorophenyl)-1-phenylmethanesulfonamide]
IC50: 2.6 nM

CC(F)(F)C1CNCC(Nc2nccc(-c3cccnc3Oc3cc(F)c(NS(=O)(=O)Cc4ccccc4)c(F)c3F)n2)C1 (single isomer, unassigned) [Compound 339, N-(4-((3-(2-((5-(1, l-Difluoroethyl)piperidin-3-yl)amino)pyrimidin-4-yl)pyridin-2-yl)oxy)-2,3,6-trifluorophenyl)-1-phenylmethanesulfonamide]
IC50: 0.24 nM
